Laboratory results taken from patent US9962623B2, “Process to remove product alcohols from fermentation broth” (BUTAMAX ADVANCED BIOFUELS LLC, priority 2011, dated 2018).

System: yeast strain, Saccharomyces cerevisiae
Experiment: Effect of disinfectant on cell viability
Type: cell-based
Details: 5 mL cells mixed with 5 mL disinfectant solution
Protocol: A study was conducted to determine the effect of disinfectant on the viability of a yeast strain, Saccharomyces cerevisiae. The primary culture was prepared by incubating seed stock of the yeast in 10 mL tubes containing YPS media at 30° C. for 24 hours in an incubator shaker (Innova 4200, New Brunswick Scientific, Edison, N.J.). Klett flasks containing 50 mL broth were then inoculated with the aliquots of primary culture, and the flasks were incubated at 30° C. in an incubator shaker. The cells were grown until the Klett readings reached about 220. Dey-Engley neutralizing broth (DE broth) (Sigma-Aldrich Corp., St. Louis, Mo.) was used as the neutralizing dilution agent. […] Thin plates were also prepared with the DE broth/agar. […] Cells (5 mL) were mixed with 5 mL sterile PBS or 5 mL of the disinfectant solutions, and incubated for various time points (0.5, 1, 2.5, 5, or 10 minutes). […] After drying, the plates were inverted and incubated at 30° C. The black bar denotes the maximum detection limit of this test.

Measured: cell viability (cells counted on DE broth/agar plates)

CCO [70% alcohol, ethanol]
<10: 0.5 minutes incubation | 1 minute incubation | 2.5 minutes incubation | 5 minutes incubation | 10 minutes incubation
